pIC50: −log10 of the molar value. Values joined by “and” are separate entries in the source; they are usually repeats but may differ in a detail not shown here. Equal values may be shown once.

The test system of one experiment is MIAPaCa-2 cells. Put plainly: Cell proliferation assay (CellTiter-Glo). The class given is cell-based. The conditions noted are these: Homo sapiens, MIA PaCa-2, 72 h, 3 days. As to the method: Cell proliferation assay was performed using CellTiter-Glo Luminescent Cell Viability Assay (Promega) following manufacturer's instructions. The MIAPaCa-2 cells (ATCC) were treated with compounds that were serial diluted in the media (DMEM). Plates were incubated for 3 days at 37° C. in 5% CO2. After 3 days, an equal volume of Cell Titer Glo reagent was added. Plates were rocked on a rotator for 2 hours. 100 μL of each well was transferred to a 96-well opaque plate, and luminescence emitted was measured with the Tecan Safire II.
On the technique in general: In ATP-based viability assays light output follows the ATP content of the culture.

For another experiment, the target named is human ICMT (Homo sapiens (Human), UniProt O60725). Briefly: ICMT biochemical assay (Methyltransferase-Glo). The note with it: ICMT membrane extract from Sf-9 cells; 30 min preincubation, 90 min reaction.
Chain of human ICMT (O60725 whole entry): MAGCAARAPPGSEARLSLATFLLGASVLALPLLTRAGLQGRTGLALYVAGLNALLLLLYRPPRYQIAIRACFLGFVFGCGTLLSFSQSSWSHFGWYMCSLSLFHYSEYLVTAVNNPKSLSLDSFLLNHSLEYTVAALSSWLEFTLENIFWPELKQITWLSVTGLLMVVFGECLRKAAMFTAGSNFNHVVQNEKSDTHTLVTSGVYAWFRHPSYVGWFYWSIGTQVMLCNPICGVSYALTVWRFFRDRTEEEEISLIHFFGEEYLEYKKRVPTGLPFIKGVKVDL
Experiment [1] concerns Prelamin A in MIAPaCa-2 cells. Put plainly: Prelamin A accumulation assay (Western blot). The conditions noted are these: various concentrations, 48 hours. The class given is cell-based. As to the method:
The MIAPaCa-2 cells were seeded in 6-well plates. After seeding for 24 hours, the cells were treated with either DMSO or varying concentration of the compound and incubated for 48 hours. The cells were trypsinized and the lysate was extracted with RIPA buffer (Santa Cruz). The total protein concentration of lysate is quantified using the standard Bradford assay (Biorad protein assay, microplate standard assay).
Western blot analysis was performed using antibody against Prelamin A in MIAPaCa cells treated with compound at various concentration for 48 hours. 15.0 μg of cell lysate was run on a SDS-PAGE and then transferred to nitrocellulose membrane. The membrane was then incubated in blocking buffer [PBS (phosphate buffered saline) with 0.1% Tween 20 and 5% dry milk] at room temperature for 1 hour, followed by incubation with Prelamin A antibody (rat monoclonal antibody) at 1:2500 dilution in PBS, 0.1% Tween 20 and 5% dry milk overnight at 4° C., followed by three washes (15 minutes each wash) in PBS, 0.1% Tween 20 on the next day.
The nitrocellulose membrane was then incubated with secondary antibody solution at room temperature for 1 hour, washed three times before developed with enhanced Chemiluminescence (ECL) mixture (Amersham, Aylesbury, United Kingdom), incubated for 5 minutes and exposed using Fluor Chem E System instrument (Protein Simple).
(A western blot detects proteins with antibodies after separation by electrophoresis.)

One may read the GI50 as the concentration giving 50% growth inhibition. Low readings indicate greater sensitivity of the cells, high ones lower sensitivity of the cells. A word on the pIC50: it is the IC50 on a negative log10 scale, so that one unit is a factor of ten. A higher pIC50 goes with a small IC50. With `Cc1nccn1-c1cc(OCCOc2ccc(C#N)cn2)ccn1` [Compound 70, 6-(2-((2-(2-methyl-1H-imidazol-1-yl)pyridin-4-yl)oxy)ethoxy)nicotinonitrile], the concentration for 50% growth inhibition (GI50) in the experiment on MIAPaCa-2 cells was found to be 5990 nM. This compound also showed a negative-log IC50 (pIC50) on human ICMT of 7.57. In addition, the “Prelamin A accumulation (Western blot)” value in experiment [1] was “Prelamin A accumulation”.
In turn, `Cn1nccc1-c1cc(OCCOc2ccc(C#N)cc2)ccn1` [Compound 59, 4-(2-((2-(1-methyl-1H-pyrazol-5-yl)pyridin-4-yl)oxy)ethoxy)benzonitrile] displayed a concentration for 50% growth inhibition (GI50) in the experiment on MIAPaCa-2 cells of 5520 nM. The pIC50 against human ICMT was 7.70. The “Prelamin A accumulation (Western blot)” value in experiment [1] is “Prelamin A accumulation”.
In the experiment on MIAPaCa-2 cells, `Cn1nccc1-c1cc(OCCOc2ccc(C#N)cn2)ccn1` [Compound 71, 6-(2-((2-(1-methyl-1H-pyrazol-5-yl)pyridin-4-yl)oxy)ethoxy)nicotinonitrile] came in with a 50% growth inhibitory concentration (GI50) of 12700 nM. Moreover, the pIC50 at human ICMT was 7.36 and 7.39. Moreover, the “Prelamin A accumulation (Western blot)” value in experiment [1] was “Prelamin A accumulation”.
With `Cn1nccc1-c1cc(OCCOc2ccc(C#N)cc2F)ccn1` [Compound 69, 3-fluoro-4-(2-((2-(1-methyl-1H-pyrazol-5-yl)pyridin-4-yl)oxy)ethoxy)benzonitrile], in the experiment on MIAPaCa-2 cells, the GI50 amounted to 5050 nM. On human ICMT, the negative logarithm of the IC50 (pIC50) is 8.55 and 8.85 and 8.82. Also, the “Prelamin A accumulation (Western blot)” value in experiment [1] was “Prelamin A accumulation”.

Values taken from patent US11834430B2, “Compounds useful as inhibitors of isoprenylcysteine carboxyl methyltransferase” (AGENCY FOR SCIENCE, TECHNOLOGY AND RESEARCH, priority 2017, dated 2023).
